Results published in US9394295B2, “Antibacterial homopiperidinyl substituted 3,4-dihydro-1H-[1,8]naphthyridinones” (Janssen Sciences Ireland UC, priority 2011, dated 2016).
≈ marks a conversion by molar mass, not a printed value. Read-outs that look alike come from different tables or passages of the source.

Assays:
[1] = biological target: T1, S. aureus ATCC 29213 FabI (Staphylococcus aureus, UniProt Q6GI75); test: Staphylococcus aureus FabI enzyme inhibition assay; type: biochemical; settings: 30 minutes at room temperature, NADH consumption
T1 sequence (Q6GI75 1-256): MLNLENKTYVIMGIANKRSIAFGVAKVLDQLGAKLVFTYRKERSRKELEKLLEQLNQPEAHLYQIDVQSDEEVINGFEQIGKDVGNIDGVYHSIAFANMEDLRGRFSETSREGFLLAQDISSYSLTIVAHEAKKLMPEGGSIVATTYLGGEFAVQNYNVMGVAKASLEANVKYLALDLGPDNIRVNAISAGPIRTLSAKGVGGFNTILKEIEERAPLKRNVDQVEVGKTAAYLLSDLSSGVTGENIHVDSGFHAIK
Procedure: FabI enzyme inhibition assays were carried out in half-area, 384-well microtitre plates. Compounds were evaluated in 40-μl assay mixtures containing 100 mM NaADA, pH 6.5 (ADA=N-[2-acetamido]-2iminodiacetic acid), 250 μM crotonoyl-CoA, 625 μM NADH and 50 μg/ml S. aureus ATCC 29213 FabI Inhibitors were typically varied over the range of 50 to 0.39 μM. The reaction mixtures were incubated for 30 minutes at room temperature and the reaction was stopped by adding 200 mM Tris buffer (pH 9.0) to create a pH-shift. The consumption of NADH was monitored by measuring the change in absorbance at […]. By comparing sample readings to those of negative (absence of compound) and positive (absence of enzyme) controls, the percent inhibition of enzymatic activity of the compounds was determined. A best-fit curve is fitted by a minimum of squares method. From this an IC50-value (expressed in μg/ml), resulting in 50% inhibition of enzymatic activity, was obtained.

[2] = tested on: Staphylococcus aureus ATCC 29213; test: Antibacterial susceptibility testing: IC90 determination (STA); type: cell-based; settings: ATCC29213, S. aureus ATCC 29213, 90% inhibitory concentration for bacterial growth, read-out: STA (361.159) IC90
Procedure: (§1) The following bacteria were used: Staphylococcus aureus ATCC 29213, methicillin-resistant Staphylococcus aureus (MRSA) ATCC 700788 and Escherichia coli ATCC 35218. The bacteria used in this study were grown overnight in flasks containing 100 ml Mueller-Hinton broth (Difco cat. nr. 0757-17) in sterile de-ionized water, with shaking, at 37° C. Stocks were store at −70° C. until use.
(§2) Bacteria were incubated on a tryptic soy agar plate containing 5% sheep blood (Becton Dickinson cat. nr. 254053) for 18-24 hours at 35° C. in aerobic conditions (first passage). For the second passage, fresh Mueller-Hinton broth is inoculated with 5-10 colonies and grown overnight at 35° C. until turbidity (reaching log-phase) in aerobic conditions is reached. The bacterial suspension is then adjusted to 0.5 McFarland density and further diluted 1:100 in Mueller Hinton broth medium. This is used as inoculum.
(§3) MIC assays were performed by the broth microdilution method in a 96-well format (flat-bottom microtitre plates) with a final volume of 0.1 ml Mueller Hinton broth containing two-fold serial dilutions of compounds and inoculated with 5×10^5 CFU/ml of bacteria (standard inoculum size according to CLSI guidelines). Inhibitors are typically varied over the range of 63 to 0.49 μM. The final DMSO concentration in the assay was 1.25% (maximum tolerable DMSO concentration=6%). In the assays where the effect of human serum on the activity of the compounds against S. aureus was tested, human serum was added at a final concentration of 10%. The plates were incubated at 35° C. for 16-20 hours. At the end of incubation the bacterial growth was quantified fluorometrically. For this, resazurin was added to all wells and the plates were re-incubated. The incubation time is dependent on the type of bacteria. A change in color from blue to pink indicated the growth of bacteria. The fluorescence was read in computer-controlled fluorometer (Fluoroskan Ascent FL, Labsystems) at an excitation wavelength 540 nm and an emission wavelength of 590 nm. The % growth inhibition achieved by the compounds was calculated according to standard methods. The IC90 (expressed in μg/ml) was defined as the 90% inhibitory concentration for bacterial growth. A panel of reference compounds were simultaneously tested for QC approval.

S. aureus = test: Antibacterial susceptibility testing: IC90 determination with 10% human serum (STA + 10% HS); type: cell-based; settings: Staphylococcus aureus; S. aureus with human serum at final concentration of 10%; read-out: STA + 10% HS (361.169) IC90
Procedure: as §1, §2, §3
The results are depicted in the table D2 below (STA+10% HS).

[3] = Cytotoxicity MTT assay (TOX HELAM); type: cell-based; settings: human, HelaM cells, read-out: TOX HELAM (222.125) CC50
Procedure: Cytotoxicity of the compounds was evaluated using the MTT assay. Human HelaM cells grown in 96-well plates were exposed to serial dilutions of the tested compounds (final volume of 0.2 ml) and incubated for 72 hours at 37° C. and 5% CO2. Inhibitors are typically varied over the range of 25 to 0.8 μM. The final DMSO concentration in the assay is 0.5%. MTT (3-(4,5-Dimethylthiazol-2-yl)-2,5-diphenyltetrazolium bromide, a tetrazole) was added and reduced to purple formazan only in living cells. Solubilization of the formazan crystals was achieved by adding 100 μl 2-propanol. Cell viability was determined by measuring the absorbance of the reduced formazan, giving a purple color, at 540 nm and 690 nm. The absorbance measured at 690 nm was automatically subtracted from the absorbance at 540 nm, to eliminate the effects of non-specific absorption. The percent cytotoxicity achieved by the compounds was calculated according to standard methods. Cytotoxicity is reported as CC50, the concentration that causes a 50% reduction in cell viability.
The results are depicted in the table D2 below (TOX HELAM).

S. aureus ATCC 29213 = test: MIC broth microdilution (CLSI), S. aureus ATCC 29213; type: cell-based; settings: Staphylococcus aureus, ATCC 29213 / MSSA, reference strain MSSA
Procedure: (§4) Minimum Inhibitory Concentrations (MICs) were determined in accordance with the Clinical and Laboratory Standards Institute (CLSI) methodology against aerobic bacteria (CLSI M07-A8) (see Clinical and Laboratory Standards Institute. 2009. Methods for dilution antimicrobial susceptibility tests for bacteria that grow aerobically. CLSI document M07-A8, Vol. 29, No. 2.) by the broth microdilution method with cation-adjusted Mueller-Hinton broth (CA-MHB) medium for the majority of organisms, except for Haemophilus influenza, where Haemophilis test medium (HTM) broth was used. Descriptions of the individual organisms can be found in the table. Where possible, ATCC standard strains were tested.
(§5) The inoculum density for the susceptibility testing was standardized to give a final inoculum of approximately 5×10^5 CFU/mL.
(§6) Stock solutions of the compounds were prepared in DMSO at concentrations of 1 mg/mL. Linezolid was prepared in DMSO at a concentration of 2 mg/mL. Stock solutions of all compounds were diluted into CA-MHB to give a range of two-fold dilutions, depending upon the sensitivity of the organism being tested.

S. aureus ATCC 43300 = test: MIC broth microdilution (CLSI), S. aureus ATCC 43300; type: cell-based; settings: Staphylococcus aureus, ATCC 43300 / MRSA, reference strain MRSA
Procedure: as §4, §5, §6

E. coli tolC mutant = test: MIC broth microdilution (CLSI), E. coli tolC mutant; type: cell-based; settings: Escherichia coli
Procedure: as §4, §5, §6

E. coli ATCC 25922 = test: MIC broth microdilution (CLSI), E. coli ATCC 25922; type: cell-based; settings: Escherichia coli, ATCC25922
Procedure: as §4, §5, §6

H. influenza ATCC 49247 = test: MIC broth microdilution (CLSI), H. influenza ATCC 49247; type: cell-based; settings: Haemophilus influenzae, ATCC49247, HTM broth
Procedure: as §4, §5, §6

[4] = In vivo pharmacokinetic and oral bioavailability; settings: male Swiss mice; for half-life: read-out: Half life (t1/2) (converted)
Procedure: The in vivo pharmacokinetics and oral bioavailability of the compound of the examples was/is investigated in male Swiss mice (fed) following single intravenous (i.v.) bolus and oral (p.o.) administration. For the i.v. and p.o. solution formulations, the compound was/is dissolved in a 20% HP-β-CD solution. The pH of the formulations was/is around pH 4. All i.v. formulations were isotonic.

[5] = mouse, plasma, iv, i.v. 2.5 mg/kg
[6] = mouse, plasma, po, p.o. 10 mg/kg

IC50 [1]	IC90 [2]	IC90 (S. aureus)	Vdz ([4]; i.v. 2.5 mg/kg)	AUC(0-inf) [4, 5]	C0 ([4]; mouse, plasma, iv, i.v. 2.5 mg/kg, 20% HP-β-CD solution)	half-life [4, 5]	clearance ([4]; mouse, plasma, iv, i.v. 2.5 mg/kg, read-out: Plasma clearance Cl (converted))	bioavailability ([4]; mouse, plasma, po, p.o. 10 mg/kg vs i.v. 2.5 mg/kg)	AUC(0-inf) [4, 6]	Tmax [4, 6]	Cmax ([4]; mouse, plasma, po, p.o. 10 mg/kg, 20% HP-β-CD solution)	half-life [4, 6]	melting point	Structure (SMILES)	CC50 at 72 h [3]	MIC90 (S. aureus ATCC 29213)	MIC90 (S. aureus ATCC 43300)	MIC90 (E. coli tolC mutant)	MIC90 (E. coli ATCC 25922)	MIC90 (H. influenza ATCC 49247)
863 nM	1.54 µg/mL (≈ 3.8 µM)	3.74 µg/mL	1.0 L/kg	6700 ng·h/mL	4550 ng/mL	2 h	6 mL/min/kg	90%	23800 ng·h/mL	1 h	3930 ng/mL	2.8 h		Cc1ccc(F)cc1C1=CCN(C(=O)/C=C/c2cnc3c(c2)CCC(=O)N3)CCC1 [Co. No. 14]	9.73 µg/mL (≈ 24 µM)					
1040 nM	3.24 µg/mL (≈ 8.61 µM)	5.76 µg/mL											156 °C	O=C1CCc2cc(/C=C/C(=O)N3CCCN(c4ccccc4)CC3)cnc2N1 [Co. No. 11]	> 9.46 µg/mL					

Structure (SMILES)	IC50 [1]	IC90 [2]	IC90 (S. aureus)	Vdz ([4]; i.v. 2.5 mg/kg)	AUC(0-inf) [4, 5]	C0 ([4]; mouse, plasma, iv, i.v. 2.5 mg/kg, 20% HP-β-CD solution)	half-life [4, 5]	clearance ([4]; mouse, plasma, iv, i.v. 2.5 mg/kg, read-out: Plasma clearance Cl (converted))	bioavailability ([4]; mouse, plasma, po, p.o. 10 mg/kg vs i.v. 2.5 mg/kg)	AUC(0-inf) [4, 6]	Tmax [4, 6]	Cmax ([4]; mouse, plasma, po, p.o. 10 mg/kg, 20% HP-β-CD solution)	half-life [4, 6]	melting point	CC50 at 72 h [3]	MIC90 (S. aureus ATCC 29213)	MIC90 (S. aureus ATCC 43300)	MIC90 (E. coli tolC mutant)	MIC90 (E. coli ATCC 25922)	MIC90 (H. influenza ATCC 49247)
O=C1CCc2cc(/C=C/C(=O)N3CCC=C(c4cccc(Cl)c4)CC3)cnc2N1 [Co. No. 19]	1050 nM	0.35 µg/mL (≈ 0.858 µM)	1.38 µg/mL												> 20.4 µg/mL	0.125 µg/mL (≈ 0.306 µM)	0.25 µg/mL (≈ 0.613 µM)	1 µg/mL (≈ 2.45 µM)	> 8 µg/mL	> 8 µg/mL
